The target of one assay is T1, mCX3CR1 (Mus musculus, UniProt Q9Z0D9).
T1 construct: expressed in transfected cells; stably expresses a Ca2+ sensitive photo-protein
T1 sequence (Q9Z0D9 1-354): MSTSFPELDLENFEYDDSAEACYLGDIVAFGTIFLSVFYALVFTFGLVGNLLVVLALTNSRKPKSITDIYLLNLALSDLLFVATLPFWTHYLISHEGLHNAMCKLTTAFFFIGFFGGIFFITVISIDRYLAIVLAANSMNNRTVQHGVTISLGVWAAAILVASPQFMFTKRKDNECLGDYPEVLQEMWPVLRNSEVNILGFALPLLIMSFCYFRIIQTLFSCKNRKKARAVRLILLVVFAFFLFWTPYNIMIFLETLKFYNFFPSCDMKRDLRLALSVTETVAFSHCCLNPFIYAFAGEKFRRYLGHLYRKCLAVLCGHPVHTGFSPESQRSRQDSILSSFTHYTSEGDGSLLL
Description: Ga16 assay, CX3CR1 agonism, Ca2+ sensitive photo-protein readout (FLIPRTETRA). Format: cell-based. The conditions noted are these: mouse CX3CR1 cell line. The procedure, abridged: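 Cells expressing human, mouse or rat CX3CR1 with a stably expressed Ca2+-sensitive photoprotein were loaded with 10 μM coelenterazine in tyrode buffer pH 7.4 for 3 h at room temperature. Agonist-mode luminescence kinetics were recorded for 90 s after compound injection on FLIPRTETRA. Dose-response runs were done in quadruplicate, with fractalkine as the reference agonist.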

Another assay has as its target T2, mouse CX3CR1 receptor (Mus musculus, UniProt Q9Z0D9).
T2 construct: expressed in transfected cells; host or cells: CHO-K1 cell membranes
T2 sequence (Q9Z0D9 1-354): T1 sequence (Q9Z0D9 1-354)
The experiment in a line: GTPγ[35S] Scintillation Proximity Assay, CHO-K1 cell membranes. It is filed as biochemical. As for the experimental part: (§1) GTPγ[^35S] Scintillation Proximity Assay
(§2) Compounds were tested for agonist activity at the mouse and human CX3CR1 receptor using cell membranes from CHO-K1 cells expressing recombinant mouse or human CX3CR1. For agonist testing, membranes are mixed with GDP. In parallel, GTPγ[^35S] is mixed with the beads just before starting the reaction. The following reagents are successively added in the wells of an Optiplate (Perkin Elmer): 50 μL of test or reference ligand, 10 μL of assay buffer, 20 μL of the membranes:GDP mix, and 20 μL of the GTPγ[^35S]:beads mix. The plates are covered with a top seal, mixed on an orbital shaker for 2 min, and then incubated for 1 hour at room temperature. Then the plates are centrifuged for 10 min at 2000 rpm, incubated at room temperature 1 hour and counted for 1 min/well with a PerkinElmer TopCount reader.
On the technique in general: In a scintillation proximity assay essentially only radioactivity close to the scintillant gives light.

The target of the next assay is T3, hCX3CR1 (Homo sapiens, UniProt P49238).
T3 sequence (P49238 1-355): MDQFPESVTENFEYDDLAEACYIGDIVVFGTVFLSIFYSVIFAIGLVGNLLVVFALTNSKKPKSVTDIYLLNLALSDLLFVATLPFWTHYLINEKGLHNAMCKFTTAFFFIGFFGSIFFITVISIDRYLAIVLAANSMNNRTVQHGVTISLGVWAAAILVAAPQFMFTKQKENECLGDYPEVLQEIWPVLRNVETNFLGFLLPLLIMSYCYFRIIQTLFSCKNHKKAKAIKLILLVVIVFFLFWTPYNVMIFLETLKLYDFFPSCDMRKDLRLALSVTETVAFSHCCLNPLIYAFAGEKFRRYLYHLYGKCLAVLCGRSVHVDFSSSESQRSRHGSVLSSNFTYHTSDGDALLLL
Described as above. Format: biochemical. Details: expressed in transfected cells; host or cells: CHO-K1 cell membranes. As for the experimental part:
as §1, §2

For assay [1], the system named is THP-1 cell adhesion to HepG2 cells. Description: CX3CR1-dependent THP-1 cell adhesion to HepG2 cells. Format: cell-based. The settings on record: THP-1 pre-treated with compound 30 min, FIG. 1. The procedure: CX3CR1 Agonists Prevent CX3CR1-Dependent THP-1 Cell Adhesion to HepG2 Cells
This assay measures the adhesion of THP-1 monocytes, which constitutively express CX3CR1, to HepG2 cells, a fractalkine-expressing cell line. Briefly, HepG2 cells were seeded at 80,000 cells per well in 96-well plates and allowed to form a monolayer overnight. The following day, THP-1 cells (at 2×10^6 cells/mL) were fluorescently labeled with Calcein-AM (5 μM) and pre-treated with compound at the doses indicated for 30 min. Labeled THP-1 cells were subsequently seeded (50,000/well) into the HepG2-containing plates and incubated for 30 min before imaging for Calcein-AM signal on the INCell Analyzer Imaging System. After four washes, the plates were imaged once again to calculate THP-1 cell adhesion, as measured by the percentage of cells remaining on the plates. […] These agonists behave as functional antagonists in the cell adhesion assay by blocking the interaction between CX3CR1 and fractalkine.

SMILES strings stand for the structures.

As usually defined, the EC50 is the concentration giving half of the maximal effect. Read a high EC50 as lower potency in that assay. On mCX3CR1, `CN(C)CC1(CNC(=O)c2cc3c(s2)CCCCCC3)CCC1` [Example 23, N-[[1-[(dimethylamino)methyl]cyclobutyl]methyl]-4,5,6,7,8,9-hexahydrocycloocta[b]thiophene-2-carboxamide] came in with an EC50 of 11.5 µM. In other words, the double-digit micromolar range.

Take `O=C(NCC1(CN2CCC(O)C2)CCCC1)c1cc2c(s1)CCCCCC2` (racemic) [Example 25, N-[[1-[(3-hydroxypyrrolidin-1-yl)methyl]cyclopentyl]methyl]-4,5,6,7,8,9-hexahydrocycloocta[b]thiophene-2-carboxamide]: the EC50 on mCX3CR1 worked out at 39.7 µM. Compared with the last molecule, the EC50 is about 3.5-fold higher.

In the case of `O=C(NCC1(CN2CCCCC2)CCCC1)c1cc2c(s1)CCCCCC2` [Example 15, N-[[1-(piperidin-1-ylmethyl)cyclopentyl]methyl]-4,5,6,7,8,9-hexahydrocycloocta[b]thiophene-2-carboxamide], on mCX3CR1, a half-maximal response (EC50) required 24.2 µM.

For the molecule `O=C(NCC1(CN2CCCC2)CC(O)C1)c1cc2c(s1)CCCCCC2` (stereo not shown) [Example 32, N-[[3-hydroxy-1-(pyrrolidin-1-ylmethyl)cyclobutyl]methyl]-4,5,6,7,8,9-hexahydrocycloocta[b]thiophene-2-carboxamide], the midpoint of the response on mCX3CR1, the EC50, lay at 14.8 µM.

For orientation: Emax means the greatest response seen or fitted, relative to the assay's reference. Take `CN(C)CC(C)(C)CNC(=O)c1cc2c(s1)CCCCCC2` [Example 70, N-[3-(dimethylamino)-2,2-dimethylpropyl]-4,5,6,7,8,9-hexahydrocycloocta[b]thiophene-2-carboxamide]: the half-maximal effective concentration (EC50) at mCX3CR1 is 44.7 µM; at mouse CX3CR1 receptor it was > 50 µM; on hCX3CR1, 4.1 µM. Further, the Emax was found to be 26% on mouse CX3CR1 receptor and 61% on hCX3CR1.

On to `O=C(NCC1(CN2CCC(O)CC2)CCCC1)c1cc2c(s1)CCCCCC2` [Example 28, N-[[1-[(4-hydroxypiperidin-1-yl)methyl]cyclopentyl]methyl]-4,5,6,7,8,9-hexahydrocycloocta[b]thiophene-2-carboxamide], for which a half-maximal effect at mCX3CR1 (EC50) was put at 10 µM.

`CN(CCO)CC1(CNC(=O)c2cc3c(s2)CCCCCC3)CCC1` [Example 30, N-[[1-[[2-hydroxyethyl(methyl)amino]methyl]cyclobutyl]methyl]-4,5,6,7,8,9-hexahydrocycloocta[b]thiophene-2-carboxamide] gave an EC50 at mCX3CR1 of 17 µM. This EC50 lies about 1.7-fold higher than the previous one.

`O=C(NCC1(CN2CCCC2)CCC1)c1cc2c(s1)CCCCCC2` [Example 21, N-[[1-(pyrrolidin-1-ylmethyl)cyclobutyl]methyl]-4,5,6,7,8,9-hexahydrocycloocta[b]thiophene-2-carboxamide]: on mCX3CR1, a half-maximal response (EC50) required 6.6 µM.

At mCX3CR1, `O=C(NCC1(CN2CCCC(O)C2)CCCC1)c1cc2c(s1)CCCCCC2` (stereo not shown) [Example 27, N-[[1-[(3-hydroxypiperidin-1-yl)methyl]cyclopentyl]methyl]-4,5,6,7,8,9-hexahydrocycloocta[b]thiophene-2-carboxamide] had an EC50 of 12.7 µM.

For `O=C(NCC1(CN2CCCC2)CCCC1)c1cc2c(s1)CCCCCC2` [Example 5, N-[[1-(pyrrolidin-1-ylmethyl)cyclopentyl]methyl]-4,5,6,7,8,9-hexahydrocycloocta[b]thiophene-2-carboxamide], a half-maximal response on mCX3CR1 (EC50) required 11.3 µM.

`CC(C)(CNC(=O)c1cc2c(s1)CCCCCC2)CN1CCCCC1` [Example 13, N-(2,2-dimethyl-3-piperidin-1-ylpropyl)-4,5,6,7,8,9-hexahydrocycloocta[b]thiophene-2-carboxamide]: the EC50 at mCX3CR1 was determined as 16 µM.

As to `CC(C)(CNC(=O)c1cc2c(s1)CCCCCC2)CN1CCCC1` [Example 1, N-(2,2-dimethyl-3-pyrrolidin-1-ylpropyl)-4,5,6,7,8,9-hexahydrocycloocta[b]thiophene-2-carboxamide], the EC50 worked out at 15.7 µM at mCX3CR1, 41.4 µM on mouse CX3CR1 receptor and 1.3 µM on hCX3CR1. Further, the figures for the Emax at mouse CX3CR1 receptor and on hCX3CR1 were 44% and 60%, respectively. Moreover, in assay [1], the “THP-1 cell adhesion to HepG2 cells” value was “prevented THP-1 adhesion to HepG2 cells in a dose-dependent manner”.

The molecule `CN(C)CC1(CNC(=O)c2cc3c(s2)CCCCCC3)CC(O)C1` (stereo not shown) [Example 31, N-[[1-[(dimethylamino)methyl]-3-hydroxycyclobutyl]methyl]-4,5,6,7,8,9-hexahydrocycloocta[b]thiophene-2-carboxamide] displayed an EC50 at mCX3CR1 of 18.5 µM. In other words, the double-digit micromolar range.

For the molecule `CN(C)CC1(CNC(=O)c2cc3c(s2)CCCCCC3)CCCC1` [Example 2, N-[[1-[(dimethylamino)methyl]cyclopentyl]methyl]-4,5,6,7,8,9-hexahydrocycloocta[b]thiophene-2-carboxamide], the EC50 came out at 10.3 µM on mCX3CR1, 8.5 µM at mouse CX3CR1 receptor and 0.8 µM on hCX3CR1. The Emax stood at 55% at mouse CX3CR1 receptor and 80% on hCX3CR1. Further, in assay [1], the “THP-1 cell adhesion to HepG2 cells” value is recorded as “prevented THP-1 adhesion to HepG2 cells in a dose-dependent manner”.

The record behind these values is patent US12258337B2, “Bicyclic CX3CR1 receptor agonists” (Board of Regents, The University of Texas System, priority 2019, dated 2025).
